From patent US11434222B2, “MAGL inhibitors” (H. LUNDBECK A/S, priority 2020, dated 2022)

Tests used:
Type in all cases: in vivo
[1] = tested on: rat formalin paw model of inflammatory pain; experiment: Rat formalin paw model of inflammatory pain
Method: In the rat formalin paw model formalin is administered into the right […] of a rat in order to induce pain (observed by hind limb licking duration and frequency).
Male Sprague Dawley rats were divided into three cohorts to enable testing in the Laboras™ equipment to be carried out over three days in a balanced design to give treatment groups of 10. On the day of the study, male Sprague Dawley rats were weighed, tail marked and dosed orally with vehicle, test compound (0.1, 0.3, 0.6, 1, 3 or 10 mg/kg) or pregabalin (30 mg/kg) 4 h pre-test using a 5 mL/kg dosing volume. For Example 6 the vehicle used was 0.5% methylcellulose in water and for Example 8 the vehicle used was 20% HP-b-CD. Up to six animals were dosed at a time. After 4 h, rats received an intraplantar injection of 50 μL of a 2.5% v/v formalin solution into the right hind paw. Rats were immediately placed into the Laboras™ cages and data acquisition started. The primary measures recorded by Laboras™ for the formalin paw model are hind limb licking duration and frequency. Locomotion is also reported as maximum speed, average speed when moving or over the whole-time bin and distance travelled. After 40 min, when data acquisition was complete, rats were removed from the cages.
On removal from the test cages, rats were anaesthetised with the gaseous anaesthetic isoflu-rane (5% v/v isoflurane in oxygen) and blood samples were collected by cardiac puncture. Brains were then removed, rinsed in phosphate buffered saline (PBS), hemi-sected and frozen separately in liquid nitrogen.
Data were analysed with Statistica software (TIBCO, USA version 11.1). All data are expressed as means±standard error of the mean (sem) to one decimal place. […] Time course data were analysed by repeated measures analysis of variance (ANOVA) followed by one-way ANOVAs at each time point and subsequent Dunnett's post hoc tests. […]

[2] = tested on: tonic hind limb extensor seizure (MEST); experiment: Maximal electroshock seizure threshold (MEST) model in the rat; conditions: 10 mg/kg p.o., 240 min pre-treatment, FIG. 3 and FIG. 4
Method: In the MEST model, a low-intensity electrical current of high frequency and short duration is applied to induce tonic convulsions.
Animals were randomly assigned to vehicle, compound treatment or Lamotrigine dose groups. Animals were dosed at 5 mL/kg according to treatment groups (n=12 or 16/group), with either vehicle (0.5% MC) p.o. for Example 6, vehicle (10% HP-b-CD) for Example 8, test compound at 10 mg/kg p.o. 240 min pre-treatment time, or Lamotrigine p.o. 360 min pre-treatment time.
Rats were individually assessed for production of a tonic hind limb extensor seizure following a single corneally delivered electroshock of 0.3 second duration, using an ‘up and down method’ of shock titration (Kimball A W et al., 1957). Thus, the first rat within a treatment group was given a shock at the expected or estimated CC50 current (current producing tonic hind limb extensor seizures in 50% of animals). […] This procedure was continued for all rats within a treatment group. Induction of seizure was measured as an all-or-nothing effect scored as either present (+) or absent (0) for each animal. […]
Significant differences between drug-treated animals and controls were assessed according to Litchfield and Wilcoxon (1949) or One-Way ANOVA followed by Dunnett's multiple comparisons test.

[3] = tested on: kainic acid induced seizures; experiment: Kainic acid seizure model in the rat; conditions: for anticonvulsant effects in the kainic acid seizure test: rat; for magnitude of the effects in the kainic acid seizure test compared with reference: middle-high doses, reference Diazepam 16 mg/kg p.o.
Method: Kainic acid is an analog of the excitatory neurotransmitter, glutamate and acts as an agonist of kainic acid receptors. After systemic injection, kainic acid induces prolonged excitatory responses with many of the features of human temporal lobe epilepsy.
Rats, placed in individual Plexiglas cages (33×21×18 cm), are injected with kainic acid (20 mg/kg i.p.). The occurrences of the following symptoms are noted over a 120-minute period 30 minutes after kainic acid injection: forelimb clonus, rearings and rearings with falling, clonic convulsions, tonic convulsions and death. The presence of each symptom and the latencies to the first appearance of the symptoms are measured. The number of forelimb clonus is counted.
12 rats are studied per group. The test is performed partially blind.
The test substances will be evaluated at multiple doses, administered p.o. 240 minutes before the test, and compared with the corresponding vehicle control group (Group 2, administered with 10% HP-b-CD in distilled water, p.o. 240 minutes before the test).
Example 6 was evaluated at 0.3, 1, 3 and 10 mg/kg, and Example 8 was evaluated at 1, 3 and 10 mg/kg, administered p.o. 4 hours before the test, and compared with a vehicle control group (administered with 10% HP-b-CD, p.o. 4 hours before the test).
Diazepam (16 mg/kg) used as reference substance, was administered p.o. 60 minutes before the test (0.5% HP-b-CD) and was compared with vehicle controls.
Quantitative data (latencies) with the test substance was analyzed by comparing treated groups with vehicle control using Kruskal-Wallis test followed by Mann-Whitney U test. Quantitative data with the reference substance will be analysed using Mann-Whitney U test.
Quantal data (frequencies) were analyzed by comparing treated groups with vehicle control using Fisher's Exact Probability tests.

O=C(Nc1cccnn1)[C@H]1CC12CCN(C(=O)OC(C(F)(F)F)C(F)(F)F)CC2 [Example 6, 1,1,1,3,3,3-hexafluoropropan-2-yl (S)-1-(pyridazin-3-ylcarbamoyl)-6-azaspiro[2.5]octane-6-carboxylate]
measure of spontaneous pain (hind limb licking frequency) ([1]; 0.6 mg/kg, 3 mg/kg and 10 mg/kg p.o. 4 h pre-test, early and/or late phases, FIG. 1): statistically significant reduction | anticonvulsant activity in the MEST (seizure threshold CC50) [2]: anticonvulsant activity | anticonvulsant effects in the kainic acid seizure test ([3]; dose-range 0.3-10 mg/kg p.o. 4 hours before the test): clear anticonvulsant effects | magnitude of the effects in the kainic acid seizure test compared with reference [3]: close to those observed with the reference substance, Diazepam

O=C(NC1CCOCC1)[C@H]1CC12CCN(C(=O)OC(C(F)(F)F)C(F)(F)F)CC2 [Example 8, 1,1,1,3,3,3-hexafluoropropan-2-yl (S)-1-[(oxan-4-yl)carbamoyl]-6-azaspiro[2.5]octane-6-carboxylate]
measure of spontaneous pain (hind limb licking frequency) ([1]; 0.3 mg/kg and 0.6 mg/kg p.o. 4 h pre-test, late phase, FIG. 2): statistically significant reduction | measure of spontaneous pain (hind limb licking frequency) ([1]; 1 mg/kg, 3 mg/kg and 10 mg/kg p.o. 4 h pre-test, both early and late phases, FIG. 2): statistically significant reduction | anticonvulsant activity in the MEST (seizure threshold CC50) [2]: anticonvulsant activity | anticonvulsant effects in the kainic acid seizure test ([3]; dose-range 1-10 mg/kg p.o. 4 hours before the test): clear anticonvulsant effects | magnitude of the effects in the kainic acid seizure test compared with reference [3]: close to those observed with the reference substance, Diazepam
